Here are results for seven molecules from PMC3859622, “Functional Characterization of ECP-Heparin Interaction: A Novel Molecular Model” (PLoS ONE, 2013).

The target of series [1] is T1, wtECP (Homo sapiens, UniProt P12724).
T1 construct: His6 (C); made in house; host or cells: Escherichia coli BL21 (DE3) CodonPlus
T1 sequence (P12724 28-160): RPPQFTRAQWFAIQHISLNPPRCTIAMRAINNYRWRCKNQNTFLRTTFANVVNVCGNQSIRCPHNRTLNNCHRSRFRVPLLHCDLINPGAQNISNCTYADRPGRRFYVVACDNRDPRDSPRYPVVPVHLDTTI
Briefly: ITC of heparins with wtECP. It counts as binding. The following applies: ITC 25 °C, PBS pH 7.4.
Protocol: (§1) Thermodynamic analysis of wtECP and mutant ECPs to bind heparin was performed using a MicroCal iTC200 calorimeter (MicroCal, Northampton, USA) [38]. ECP was dialyzed against PBS before use and the same buffer was used to prepare heparin solutions. All experiments were performed at 25 °C, using ECP (20 μM, as protein) and heparin (200 μM). The protein solution was placed in a calorimeter cell and the heparin solution was loaded into the syringe injector. In individual titration, auto-controlled microsyringe injected 2 μL heparin solution into the protein solution with an interval of 120 sec. The integrated heat change was analyzed by means of non-linear regression using the MicroCal Origin software, and enthalpy change (ΔH), dissociation constant (K D), and stoichiometry value (N = X/M) were obtained from a single sigmoidal titration curve [39]. […] The effect of dilution of the heparin solution in the titration cell was removed by subtracting calorimetric data for a blank titration, which consisted of titration of heparin solution into PBS.

For series [2], the target named is T2, ECP Q40A (Homo sapiens, UniProt P12724, Q67A).
T2 sequence (P12724 28-160 Q67A): T1 sequence (P12724 28-160) with Q40A
Briefly: ITC of heparins with ECP Q40A. It counts as binding. The following applies: ITC 25 °C, PBS pH 7.4.
Protocol: as §1

The target of series [3] is T3, ECP H64A (Homo sapiens, UniProt P12724, H91A).
T3 sequence (P12724 28-160 H91A): T1 sequence (P12724 28-160) with H64A
The experiment in a line: ITC of heparins with ECP H64A. In kind it is binding. The settings on record: ITC 25 °C, PBS pH 7.4.
Protocol: as §1

Series [4] has as its target T4, ECP Q40A/H64A (Homo sapiens, UniProt P12724, H91A/Q67A).
T4 sequence (P12724 28-160 Q67A/H91A): T1 sequence (P12724 28-160) with Q40A, H64A
Briefly: ITC of heparins with ECP Q40A/H64A. In kind it is binding. The following applies: ITC 25 °C, PBS pH 7.4.
Protocol: as §1

For series [5], the target named is T5, ECP R105A (Homo sapiens, UniProt P12724, R132A).
T5 sequence (P12724 28-160 R132A): T1 sequence (P12724 28-160) with R105A
Briefly: ITC of heparins with ECP R105A. It counts as binding. The settings on record: ITC 25 °C, PBS pH 7.4.
Protocol: as §1

Series [6] relates to EDN. The following applies: calculated, cited from earlier work.
The subject of series [7] is EDN W7A. More on the design: method as in earlier work. The settings on record: calculated, Hep6 docked to EDN W7A; cited from earlier work.
For series [8], the system named is EDN W10A. On the set-up: method as in earlier work. The following applies: calculated, Hep6 docked to EDN W10A; cited from earlier work.
Series [9] relates to EDN Q14A. More on the design: method as in earlier work. The settings on record: calculated, Hep6 docked to EDN Q14A; cited from earlier work.
Series [10] relates to EDN H15A. On the set-up: method as in earlier work. The settings on record: calculated, Hep6 docked to EDN H15A; cited from earlier work.
In series [11] the test system is EDN Q34A. On the set-up: method as in earlier work. The following applies: calculated, Hep6 docked to EDN Q34A; cited from earlier work.
The subject of series [12] is EDN R36A. On the set-up: method as in earlier work. The following applies: calculated, Hep6 docked to EDN R36A; cited from earlier work.
In series [13] the test system is EDN K38A. On the set-up: method as in earlier work. The settings on record: calculated, Hep6 docked to EDN K38A; cited from earlier work.
Series [14] concerns EDN N39A. More on the design: method as in earlier work. The settings on record: calculated, Hep6 docked to EDN N39A; cited from earlier work.
The subject of series [15] is EDN Q40A. On the set-up: method as in earlier work. The settings on record: calculated, Hep6 docked to EDN Q40A; cited from earlier work.
In series [16] the test system is EDN H129A. More on the design: method as in earlier work. The following applies: calculated, Hep6 docked to EDN H129A; cited from earlier work.
The subject of series [17] is EDN L130A. On the set-up: method as in earlier work. The settings on record: calculated, Hep6 docked to EDN L130A; cited from earlier work.
Series [18] has as its system EDN R132A. On the set-up: method as in earlier work. The following applies: calculated, Hep6 docked to EDN R132A; cited from earlier work.
Series [19] concerns yeast tRNA. Briefly: Ribonuclease activity, yeast tRNA digestion. It counts as biochemical. The following applies: yeast tRNA cleavage, 37 °C, 15 min, pH 7.4. The procedure: Ribonuclease activities of recombinant wtECP and mutant ECPs were measured using yeast tRNA (Invitrogen, USA) digestion method, using bovine pancreatic RNaseA (USB, USA) as positive control. Three hundred microliters of 100 mM sodium phosphate buffer, pH 7.4, and 500 μl diethylpyrocarbonate-ddH2O were mixed with 50 μl 0.05 μM RNaseA and 5 μM wtECP or each mutant ECP separately. Ten microliters of 5 mg/ml yeast tRNA was added and incubated at 37 °C for 0, 5, 10 and 15 min. Ice-cold 500 μl stop solution (1:1, v/v, 40 mM lanthanum nitrate and 6% perchloric acid) was added and shaken for 10 min to stop reaction. Intact yeast tRNA was […] by centrifugation at 16,100 × g at 25 °C for 5 min. One hundred microliters of supernatant in each tube was placed on to a 96-well plate. The amount of soluble tRNA in supernatant was determined by A260 nm. The calculation has been described previously.

On the set-up of series [20]: method as in PMID 9357326. The following applies: relative to EDN; cited from earlier work.
Series [21] has as its system yeast tRNA. On the set-up: method as in PMID 9649619. The settings on record: cited from earlier work.

Positions count from the first letter of the chain named. Names and notes keep the numbering of the source. Values joined by “and” are separate entries in the source; they are usually repeats but may differ in a detail not shown here. Equal entries are not always repeated. Where two headings read alike, the source gives them in different places.

`O=C(O)[C@@H]1O[C@@H](O[C@H]2[C@H](O)[C@@H](NS(=O)(=O)O)[C@@H](O[C@H]3[C@H](O)[C@@H](OS(=O)(=O)O)C(O)O[C@H]3C(=O)O)O[C@@H]2COS(=O)(=O)O)[C@H](OS(=O)(=O)O)[C@@H](O)[C@@H]1O[C@H]1O[C@H](COS(=O)(=O)O)[C@@H](O[C@@H]2O[C@@H](C(=O)O)[C@@H](O[C@H]3O[C@H](COS(=O)(=O)O)[C@@H](O)[C@H](O)[C@H]3NS(=O)(=O)O)[C@H](O)[C@H]2OS(=O)(=O)O)[C@H](O)[C@H]1NS(=O)(=O)O` (stereo partly drawn) [Hep6, [GlcNS(6S)-IdoA(2S)]3]: the “N (sites)” value in [1] was found to be 1.77 ± 0.1 sites; in series [2], 1.7 ± 0.1 sites; in series [3] it was 2.74 ± 0.3 sites; in series [4], 2.45 ± 0.1 sites; in series [5], 2.81 ± 0.1 sites. Moreover, the TΔS in series [1] is on record as 4.8 ± 0.1 kcal/mol; in series [2] it was 3.2 ± 0.2 kcal/mol; in [3], 2 ± 0.3 kcal/mol; in [4], 3.7 ± 0.1 kcal/mol; in series [5] it was 3.3 ± 0.1 kcal/mol. Moreover, the ΔG was -7.8 kcal/mol and -7.8 ± 0.1 kcal/mol in series [1]; -7.6 kcal/mol and -7.6 ± 0.2 kcal/mol in series [2]; -7.7 kcal/mol and -7.7 ± 0.4 kcal/mol in series [3]; -7.5 kcal/mol and -7.5 ± 0.1 kcal/mol in series [4]; -7.9 kcal/mol and -7.9 ± 0.2 kcal/mol in [5]. Also, the ΔH in series [2] is given as -4.4 ± 0.3 kcal/mol; in [3], -5.8 ± 0.4 kcal/mol; in series [4], -3.9 ± 0.2 kcal/mol; in [5] it was -4.4 ± 0.2 kcal/mol. The Binding energy in series [6] (Hep6 docked to wild type EDN, previous docking simulation data) is given as -9.27 kcal/mol; in series [7], -8.93 kcal/mol; in series [8], -8.88 kcal/mol; in [9] it was -8.81 kcal/mol; in series [10] it was -8.93 kcal/mol; in series [11] it was -8.88 kcal/mol. Further, the Binding energy in [12] is reported as -8.71 kcal/mol; in series [13], -8.66 kcal/mol; in series [14], -8.98 kcal/mol; in series [15], -8.50 kcal/mol; in series [16], -9.05 kcal/mol; in series [17] it was -9.19 kcal/mol. Further, in series [18], the Binding energy is reported as -8.81 kcal/mol. The Contribution is given as -0.34 kcal/mol in series [6] (contribution of EDN H15 to Hep6 binding energy); -0.61 kcal/mol in [6] (contribution of EDN K38 to Hep6 binding energy); -0.08 kcal/mol in series [6] (contribution of EDN L130 to Hep6 binding energy); -0.29 kcal/mol in series [6] (contribution of EDN N39 to Hep6 binding energy); -0.46 kcal/mol in series [6] (contribution of EDN Q14 to Hep6 binding energy); -0.39 kcal/mol in series [6] (contribution of EDN Q34 to Hep6 binding energy). Moreover, the Contribution in series [6] (contribution of EDN Q40 to Hep6 binding energy) was -0.77 kcal/mol; in [6] (contribution of EDN R36 to Hep6 binding energy) it was -0.56 kcal/mol; in series [6] (contribution of EDN R132 to Hep6 binding energy) it was -0.46 kcal/mol; in [6] (contribution of EDN W7 to Hep6 binding energy) it was -0.34 kcal/mol; in series [6] (contribution of EDN W10 to Hep6 binding energy) it was -0.39 kcal/mol; in [6] (contribution of EDN residue printed H120 (row H129A) to Hep6 binding energy), -0.22 kcal/mol.

B1: wtECP: recombinant wild type human eosinophil cationic protein with C-terminal His6 tag, refolded from E. coli (protein, UniProt P12724 28-160, looked up)
Eosinophil cationic protein: T1 sequence (P12724 28-160)
modifications: C-terminal His6 tag
For the molecule B1, the RNase activity in series [19] was 0.0049 soluble tRNA/pmol and 0.0049 ± 0.0001 soluble tRNA/pmol. Further, the “Ribonucleolytic activity of EDN” value in series [20] is listed as 1%.

B2: Q40A: single mutant recombinant ECP, Gln40 to Ala (protein, UniProt P12724 28-160, looked up, variant Q40A)
Eosinophil cationic protein: T1 sequence (P12724 28-160) with Q40A
With B2, the RNase activity in [19] was 0.0043 soluble tRNA/pmol and 0.0043 ± 0.0001 soluble tRNA/pmol.

B3: H64A: single mutant recombinant ECP, His64 to Ala (protein, UniProt P12724 28-160, looked up, variant H64A)
Eosinophil cationic protein: T1 sequence (P12724 28-160) with H64A
Take B3: in series [19], the RNase activity is 0.0068 soluble tRNA/pmol and 0.0068 ± 0.0001 soluble tRNA/pmol.

B4: Q40A/H64A: double mutant recombinant ECP, Gln40 and His64 to Ala (protein, UniProt P12724 28-160, looked up, variant Q40A H64A)
Eosinophil cationic protein: T1 sequence (P12724 28-160) with Q40A, H64A
Take B4: the RNase activity in series [19] was 0.0056 soluble tRNA/pmol and 0.0056 ± 0.0002 soluble tRNA/pmol.

B5: R105A: single mutant recombinant ECP, Arg105 to Ala (protein, UniProt P12724 28-160, looked up, variant R105A)
Eosinophil cationic protein: T1 sequence (P12724 28-160) with R105A
In the case of B5, the RNase activity in [19] was 0.0032 soluble tRNA/pmol and 0.0032 ± 0.0002 soluble tRNA/pmol.

B6: Bovine RNase A: bovine pancreatic RNaseA (USB), positive control (protein, UniProt P61823 27-150, looked up)
Ribonuclease pancreatic: KETAAAKFERQHMDSSTSAASSSNYCNQMMKSRNLTKDRCKPVNTFVHESLADVQAVCSQKNVACKNGQTNCYQSYSTMSITDCRETGSSKYPNCAYKTTQANKHIIVACEGNPYVPVHFDASV
In the case of B6, the RNase activity in series [19] worked out at 1.1710 ± 0.0131 soluble tRNA/pmol; in series [19] (listed as bovine RNaseA) it was 1.171 soluble tRNA/pmol. In series [21], the “RNase activity, reported number” value is given as 1.208 soluble tRNA/pmol.
